Data: patent US20260345517A1, “DOSAGE REGIMENS FOR TREATING STARGARDT DISEASE” (Alkeus Pharmaceuticals, Inc., priority 2024, published 2026)

Columns and labels:
TEASE-3: safety = format: in vivo, human; details: 14 mg daily, three patients
Protocol: Patients received gildeuretinol acetate 14 mg capsules, to be taken orally once daily. Trial visits occurred every 6 months approximately following screening and treatment start visits.
Ocular safety was assessed by retinal imaging and ocular exam, which included evaluation of the anterior and posterior segments and the lens. Systemic safety was assessed by physical exam, comprehensive clinical labs (biochemistry, hematology, lipids), and 12-lead ECG.

[1] = Open-label multiple dose pharmacokinetic study in healthy volunteers (percentage of deuterated vitamin A in plasma, LC/MS); format: in vivo, human; details: for % D3 Vitamin A: average over 24 hours, from AUC
Protocol: Study Design: This was an open-label, non-randomized, multiple dose study in healthy volunteers aged 21 to 70 years of age (inclusion criteria). Subjects who met all entrance criteria at screening were invited to receive the study medication. There were six treatment arms: 2 mg/day, 3.5 mg/day, 5 mg/day, 7 mg/day, 10 mg/day and 14 mg/day gildeuretinol acetate. For the four lower dose groups, the dose regimen was one capsule per day, orally, to be taken at home, preferably in the evening unless a different time was preferred by the subject. For the two highest doses, the dose regimen was two capsules per day, one in the morning and one in the evening, although subjects with a preference to take both capsules at once were offered to do so. After taking the 1st dose at the study site, subjects were invited to return two and four weeks after starting the treatment.
The clinical staff made periodic calls to monitor adverse events and ensure subject compliance. In addition, a text message was sent daily to remind subjects to take their medication. Subjects were instructed to avoid foods that contain large amounts of vitamin A (such as liver-based products), including supplements containing vitamin A, and to report their vitamin A intake by answering a daily text message diary. Fruits and vegetables were permitted without restriction.
Deuterated retinol (gildeuretinol) (“D3”) and non-deuterated retinol (“Do”) and other vitamin A metabolites were measured to calculate the percentage of deuterated vitamin A in plasma. For all treatment groups, plasma samples were collected at baseline, 14±1 days (“2 weeks”) and 28±1 days (“4 weeks”) after initiation of treatment. Blood samples were usually collected following at least 10 hours of fasting (including last gildeuretinol acetate intake), preferably in the morning. For the 7 mg/day and the 14 mg/day groups only, after the first and last dose, blood samples were collected every 4 hours for 24 hours. A liquid chromatography/mass spectrometry assay was used to measure the metabolite levels.
Table 2 provides % D3 Retinol (gildeuretinol, i.e. the percentage of deuterated retinol (gildeuretinol) over total retinol (as deuterated+non-deuterated) in plasma measured 12-24 hours following gildeuretinol acetate intake.
Pharmacokinetic Results (integrated levels over 24 hours post dosing): total vitamin A in plasma, both deuterated (gildeuretinol) and non-deuterated (retinol), was measured every 4 hours following administration of 7 mg or 14 mg at the first dose, and following administration of the 28th dose (4 weeks of daily treatment). The area under the curve (AUC) was calculated and the % deuterated % D3 of total vitamin A (as retinol and gildeuretinol) was computed as an average over 24 hours.

## CC(=O)OC/C=C(C)/C=C/C=C(C)/C=C/C1=C(C)CCCC1(C)C [gildeuretinol acetate, C20-D3-retinol acetate]
TEASE-3: safety
  adverse reactions linked to excessive or insufficient vitamin A: None of the three treated Stargardt disease asymptomatic patients exhibited adverse reactions
[1]; 7 mg/day, 1st dose
  % D3 Vitamin A: 38%
[1]; 7 mg/day, 28th dose
  % D3 Vitamin A: 75%
[1]; 14 mg once daily, after 4 weeks
  average percentage of deuterated plasma vitamin A of total vitamin A (retinol + gildeuretinol): 85%
[1]; 14 mg/day, 1st dose
  % D3 Vitamin A: 52%
[1]; 14 mg/day, 28th dose
  % D3 Vitamin A: 85%
